The results in this text go back to PMC6842527, “Molecular cloning and metabolomic characterization of the 5-enolpyruvylshikimate-3-phosphate synthase gene from Baphicacanthus cusia” (BMC Plant Biology, 2019).

Usually Ki stands for a dissociation constant, usually derived from enzyme kinetics or from competition with a known ligand.

For the experiment, the target named is T1, BcEPSPS (5-enolpyruvylshikimate-3-phosphate synthase).
T1 construct: gene EPSPS; full-length coding region (518 aa) in pET-32a, His-tagged fusion BcEPSPS-His, expressed in E. coli BL21
In words: malachite green phosphate-release enzyme assay with purified recombinant BcEPSPS; Ki at […] S3P (IC50 […] also reported). The class given is biochemical, Baphicacanthus cusia.

`O=C(O)CNCP(=O)(O)O` [glyphosate]: the inhibitory constant (Ki) came to 46 nM.
